Structures are written as SMILES. pIC50: −log10 of the molar value.

This note sets out measurements from patent US9187472B2 (AbbVie Inc., priority 2012, dated 2015).

Assay [1] deals with NAMPT (Homo sapiens, UniProt P43490). In words: TR-FRET Binding Assay of NAMPT with PRPP. Conditions: with 200 μM PRPP and 2.5 mM ATP; 2 nM NAMPT, 2 nM probe, 16 hours equilibration. A digest of the protocol:
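NAMPT 2 nM + probe 2 nM + Tb-anti-His Ab 1 nM; PRPP 200 μM, ATP 2.5 mM, DMSO 2%; 16 h equilibration before TR-FRET read.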

The target in assay [2] is NAMPT (human, recombinant, C-terminally His-tagged) (Homo sapiens, UniProt P43490). Briefly: Time-Resolved Fluorescence Resonance Energy Transfer (TR-FRET) Binding Assay of NAMPT. As to conditions: without substrates; 6.8 nM NAMPT, 200 nM probe, 3 hours equilibration. A digest of the protocol:
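Read-out is the time-resolved FRET ratio Em520/Em495 (excitation 337 nm) between a terbium anti-His antibody (1 nM) on the enzyme and an Oregon Green 488-labelled nicotinamide-competitive inhibitor probe (200 nM). Enzyme was 6.8 nM, DMSO 2%, pH 7.5 HEPES buffer; 3 h room-temperature equilibration preceded reading.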

The subject of assay [3] is PC3 cells. In words: NAMPT Cell Proliferation Assay. In kind it is cell-based. Conditions: Homo sapiens, PC-3, 120 h, 5 days incubation, cell viability by Cell Titer Glo. A digest of the protocol:
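PC3 cells were plated at 500 cells/well in RPMI with 10% heat-inactivated FBS, left to attach overnight, then given compounds in 10-fold dilutions from 10 μM to 1×10^−5 μM. After 5 days at 37° C and 5% CO2, viability was read by luminescence and IC50s came from sigmoidal fits of percent inhibition.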

NAMPT (human, recombinant, C-terminally His-tagged), sequence (P43490 whole entry): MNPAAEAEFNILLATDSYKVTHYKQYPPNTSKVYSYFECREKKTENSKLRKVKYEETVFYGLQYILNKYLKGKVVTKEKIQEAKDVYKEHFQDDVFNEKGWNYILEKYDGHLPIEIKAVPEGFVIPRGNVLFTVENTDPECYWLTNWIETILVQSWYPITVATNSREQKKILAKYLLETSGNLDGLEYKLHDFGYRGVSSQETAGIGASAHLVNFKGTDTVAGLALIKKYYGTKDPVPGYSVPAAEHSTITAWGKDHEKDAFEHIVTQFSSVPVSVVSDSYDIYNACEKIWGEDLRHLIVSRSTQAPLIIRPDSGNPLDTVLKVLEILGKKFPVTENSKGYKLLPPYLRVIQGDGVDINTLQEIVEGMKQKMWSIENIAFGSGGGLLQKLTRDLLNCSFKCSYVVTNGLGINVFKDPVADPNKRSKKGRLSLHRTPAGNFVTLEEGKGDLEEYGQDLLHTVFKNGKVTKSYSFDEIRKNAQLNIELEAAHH
NAMPT, sequence (P43490 whole entry): as above

For `O=C(Cc1ccc(NC(=O)CC2CCCC2)cc1)Nc1ccc2nccn2c1` [Example 76, 2-cyclopentyl-N-{4-[2-(imidazo[1,2-a]pyridin-6-ylamino)-2-oxoethyl]phenyl}acetamide], the pIC50 in assay [1] was 9.13; in assay [2], 6.00; in assay [3], 6.73.
In the same order, the values of `O=C(CC1CCCO1)Nc1ccc(C(=O)NCc2ccc3nccn3c2)cc1` (stereo not drawn) [Example 77, N-(imidazo[1,2-a]pyridin-6-ylmethyl)-4-[(tetrahydrofuran-2-ylacetyl)amino]benzamide] are 8.54, 7.25 and 7.85.
Regarding `O=C(CC1CCOC1)Nc1ccc(C(=O)NCc2ccc3nccn3c2)cc1` (stereo not drawn) [Example 78, N-(imidazo[1,2-a]pyridin-6-ylmethyl)-4-[(tetrahydrofuran-3-ylacetyl)amino]benzamide], the pIC50 in assay [1] was 8.62; in assay [2], 7.25; in assay [3], 7.39.
On to `O=C(CC1CCOCC1)Nc1ccc(C(=O)NCc2ccc3nccn3c2)cc1` [Example 79, N-(imidazo[1,2-a]pyridin-6-ylmethyl)-4-[(tetrahydro-2H-pyran-4-ylacetyl)amino]benzamide], for which the results for the negative logarithm of the IC50 (pIC50) in assay [1], in assay [2] and in assay [3] were 8.16, 6.92 and 8.13, respectively.
`O=C(CN1CCOCC1)Nc1ccc(C(=O)NCc2ccc3nccn3c2)cc1` [Example 80, N-(imidazo[1,2-a]pyridin-6-ylmethyl)-4-[(morpholin-4-ylacetyl)amino]benzamide]: the figures for the pIC50 in assay [1], in assay [2] and in assay [3] were 8.24, 6.64 and 7.71, respectively.
The corresponding values for `O=C(CCC1CCCC1)Nc1ccc(C(=O)NCc2ccc3nccn3c2)cc1` [Example 81, 4-[(3-cyclopentylpropanoyl)amino]-N-(imidazo[1,2-a]pyridin-6-ylmethyl)benzamide] are 8.57, 7.81 and 8.15.
Regarding `CC(C)OCC(=O)Nc1ccc(C(=O)NCc2ccc3nccn3c2)cc1` [Example 82, N-(imidazo[1,2-a]pyridin-6-ylmethyl)-4-{[(propan-2-yloxy)acetyl]amino}benzamide], the pIC50 was 8.19 in assay [1], 6.45 in assay [2] and 7.17 in assay [3].
The corresponding values for `CC(C)(C)OC(=O)N1CC=C(c2ccc(C(=O)NCc3ccc4nccn4c3)cc2)CC1` [Example 83, tert-butyl 4-{4-[(imidazo[1,2-a]pyridin-6-ylmethyl)carbamoyl]phenyl}-3,6-dihydropyridine-1(2H)-carboxylate] are 8.64, 6.05 and 7.61.
As for `O=C(CC1CCCC1)Nc1ccc(CNC(=O)c2ccc3nccn3c2)cc1` [Example 84, N-{4-[(cyclopentylacetyl)amino]benzyl}imidazo[1,2-a]pyridine-6-carboxamide], the pIC50 in assay [1] is 7.96; in assay [2] it was 5.78; in assay [3] it was 6.12.
Take `O=C(NCc1ccc2nccn2c1)c1cnc(N2CCc3ccccc3CC2)s1` [Example 85, N-(imidazo[1,2-a]pyridin-6-ylmethyl)-2-(1,2,4,5-tetrahydro-3H-3-benzazepin-3-yl)-1,3-thiazole-5-carboxamide]: the pIC50 in assay [1] is 8.85; in assay [2] it was 5.39; in assay [3], 5.58.
The corresponding values for `O=C(NCc1ccc2nccn2c1)c1cnc(N2CCC(c3ccccc3)C2)s1` (stereo not drawn) [Example 86, N-(imidazo[1,2-a]pyridin-6-ylmethyl)-2-(3-phenylpyrrolidin-1-yl)-1,3-thiazole-5-carboxamide] are 7.92, 5.69 and 5.24.
Take `CC(C)CCNc1ncc(C(=O)NCc2ccc3nccn3c2)s1` [Example 87, N-(imidazo[1,2-a]pyridin-6-ylmethyl)-2-[(3-methylbutyl)amino]-1,3-thiazole-5-carboxamide]: the pIC50 in assay [1] is 8.87; in assay [2], 5.69; in assay [3], 5.18.
With `O=C(NCc1ccc2nccn2c1)c1cnc(N2Cc3ccccc3C2)s1` [Example 88, 2-(1,3-dihydro-2H-isoindol-2-yl)-N-(imidazo[1,2-a]pyridin-6-ylmethyl)-1,3-thiazole-5-carboxamide], the pIC50 in assay [1] is 8.07; in assay [2] it was 5.55; in assay [3] it was 5.09.
In the same order, the values of `CC(C)(C)OC(=O)N1CCC(c2ccc(NC(=O)Nc3ccc4nccn4c3)cc2)CC1` [Example 89, tert-butyl 4-{4-[(imidazo[1,2-a]pyridin-6-ylcarbamoyl)amino]phenyl}piperidine-1-carboxylate] are 9.42, 6.18 and 6.95.
With `CC(C)C(=O)N1CC=C(c2ccc(C(=O)NCc3ccc4nccn4c3)cc2)CC1` [Example 90, N-(imidazo[1,2-a]pyridin-6-ylmethyl)-4-[1-(2-methylpropanoyl)-1,2,3,6-tetrahydropyridin-4-yl]benzamide], the pIC50 in assay [1] is 9.20; in assay [2], 6.69; in assay [3] it was 7.73.
In the case of `CC(C)(O)C(=O)N1CC=C(c2ccc(C(=O)NCc3ccc4nccn4c3)cc2)CC1` [Example 91, 4-[1-(2-hydroxy-2-methylpropanoyl)-1,2,3,6-tetrahydropyridin-4-yl]-N-(imidazo[1,2-a]pyridin-6-ylmethyl)benzamide], the pIC50 was 8.90 in assay [1], 6.76 in assay [2] and 7.86 in assay [3].
Regarding `O=C(NCc1ccc2nccn2c1)c1ccc(C2=CCN(C(=O)CN3CCOCC3)CC2)cc1` [Example 92, N-(imidazo[1,2-a]pyridin-6-ylmethyl)-4-[1-(morpholin-4-ylacetyl)-1,2,3,6-tetrahydropyridin-4-yl]benzamide], the pIC50 is 9.06 in assay [1], 6.74 in assay [2] and 8.02 in assay [3].
In the same order, the values of `O=C(NCc1ccc2nccn2c1)c1ccc(C2=CCN(C(=O)CC3CCOCC3)CC2)cc1` [Example 93, N-(imidazo[1,2-a]pyridin-6-ylmethyl)-4-[1-(tetrahydro-2H-pyran-4-ylacetyl)-1,2,3,6-tetrahydropyridin-4-yl]benzamide] are 8.86, 6.41 and 8.15.
In the case of `O=C(NCc1ccc2nccn2c1)c1ccc(C2=CCN(C(=O)CC3CCOC3)CC2)cc1` (stereo not drawn) [Example 94, N-(imidazo[1,2-a]pyridin-6-ylmethyl)-4-[1-(tetrahydrofuran-3-ylacetyl)-1,2,3,6-tetrahydropyridin-4-yl]benzamide], the pIC50 in assay [1] is 9.23; in assay [2], 6.54; in assay [3] it was 7.85.
`O=C(NCc1ccc2nccn2c1)c1ccc(C2=CCN(C(=O)CC3CCCO3)CC2)cc1` (stereo not drawn) [Example 95, N-(imidazo[1,2-a]pyridin-6-ylmethyl)-4-[1-(tetrahydrofuran-2-ylacetyl)-1,2,3,6-tetrahydropyridin-4-yl]benzamide]: the pIC50 in assay [1] is 9.00; in assay [2] it was 6.70; in assay [3], 7.97.
As to `O=C(NCc1ccc2nccn2c1)c1ccc(C2=CCN(C(=O)CCC3CCCO3)CC2)cc1` (stereo not drawn) [Example 96, N-(imidazo[1,2-a]pyridin-6-ylmethyl)-4-{1-[3-(tetrahydrofuran-2-yl)propanoyl]-1,2,3,6-tetrahydropyridin-4-yl}benzamide], the pIC50 is 8.81 in assay [1], 6.72 in assay [2] and 8.02 in assay [3].
Consider `O=C(NCc1ccc2nccn2c1)c1ccc(C2=CCN(C(=O)CC3CCCC3)CC2)cc1` [Example 97, 4-[1-(cyclopentylacetyl)-1,2,3,6-tetrahydropyridin-4-yl]-N-(imidazo[1,2-a]pyridin-6-ylmethyl)benzamide], for which the pIC50 in assay [1] was 9.48; in assay [2] it was 6.96; in assay [3] it was 8.34.
The corresponding values for `CC(C)OCC(=O)N1CC=C(c2ccc(C(=O)NCc3ccc4nccn4c3)cc2)CC1` [Example 98, N-(imidazo[1,2-a]pyridin-6-ylmethyl)-4-{1-[(propan-2-yloxy)acetyl]-1,2,3,6-tetrahydropyridin-4-yl}benzamide] are 9.44, 6.92 and 7.71.
In the same order, the values of `O=C(NCc1ccc2nccn2c1)c1ccc(C2=CCN(C(=O)C3CCCO3)CC2)cc1` (stereo not drawn) [Example 99, N-(imidazo[1,2-a]pyridin-6-ylmethyl)-4-[1-(tetrahydrofuran-2-ylcarbonyl)-1,2,3,6-tetrahydropyridin-4-yl]benzamide] are 9.39, 6.92 and 7.58.
In the same order, the values of `O=C(NCc1ccc2nccn2c1)c1ccc(C2=CCN(C(=O)C3CCOC3)CC2)cc1` (stereo not drawn) [Example 100, N-(imidazo[1,2-a]pyridin-6-ylmethyl)-4-[1-(tetrahydrofuran-3-ylcarbonyl)-1,2,3,6-tetrahydropyridin-4-yl]benzamide] are 9.77, 6.99 and 7.79.
